Data on nine compounds can be found in ChEMBL document CHEMBL3621070, “Design and synthesis of 2-phenylnaphthalenoids and 2-phenylbenzofuranoids as DNA topoisomerase inhibitors and antitumor agents” (Eur J Med Chem, 2015).

For assay [1], the system named is MDA-MB-435. The experiment in a line: Antiproliferative activity against human MDA-MB-435 cells assessed as growth inhibition at 10 uM after 72 hrs by SRB assay. It is filed as functional. The following applies: MDA-MB-435, 72 h, read-out: GI.
Assay [2] concerns MDA-MB-231. The assay is described as follows: Antiproliferative activity against human MDA-MB-231 cells assessed as growth inhibition at 10 uM after 72 hrs by SRB assay. It is filed as functional. Particulars: MDA-MB-231, 72 h, read-out: GI.
Assay [3] relates to Nucleic Acid. The experiment in a line: Induction of DNA intercalation in Escherichia coli pBR322 plasmid DNA assessed as supercoiled DNA formation at 10 ug/ml after 1 hr by agarose gel electrophoresis. It is filed as nucleic-acid assay.
For the next assay, the species on record is Bos taurus. The experiment in a line: Inhibition of calf thymus topoisomerase 1 assessed as relaxation of pBR322 DNA at 100 uM after 30 mins by agarose gel electrophoresis.
Assay [4] deals with MDA-MB-231. The experiment in a line: Antiproliferative activity against human MDA-MB-231 cells after 72 hrs by SRB assay. The format is functional, cell-based. Particulars: MDA-MB-231, 72 h. In general terms: In SRB staining, fixed cells bind dye roughly in proportion to their protein.
A further assay has as its system PC-3. The experiment in a line: Antiproliferative activity against human PC3 cells after 72 hrs by SRB assay. The format is functional, cell-based. The following applies: PC-3, 72 h.
Assay [5] concerns MDA-MB-435. The experiment in a line: Antiproliferative activity against human MDA-MB-435 cells after 72 hrs by SRB assay. It is filed as functional, cell-based. Particulars: MDA-MB-435, 72 h.
In the next assay the test system is HepG2. The experiment in a line: Antiproliferative activity against human HepG2 cells after 72 hrs by SRB assay. The following applies: HepG2, 72 h. The format is functional, cell-based.
For assay [6], the system named is Nucleic Acid. The experiment in a line: Induction of DNA intercalation in Escherichia coli pBR322 plasmid DNA assessed as supercoiled DNA formation at 100 uM after 1 hr by agarose gel electrophoresis. It is filed as nucleic-acid assay.
Assay [7] deals with DNA topoisomerase 2-alpha (Homo sapiens) (UniProt P11388). The following applies: 100 uM.
Description: Inhibition of human recombinant topoisomerase 2 alpha assessed as topoisomerase poison activity by measuring generation of linear DNA using circular supercoiled DNA at 100 uM by agarose gel electrophoresis
The target is the same in assay [8]. The experiment in a line: Inhibition of human recombinant topoisomerase 2alpha assessed as relaxation of pBR322 DNA at 100 uM after 30 mins by agarose gel electrophoresis.
In assay [9] the test system is MDA-MB-231. The assay is described as follows: Inhibition of topoisomerase in human MDA-MB-231 cells assessed as ATM phosphorylation at Ser1981 residue at 10 uM after 24 hrs by western blot analysis. The format is cell-based.

Activity calls are given as the source filed them. The calls are words filed in the database; no cut-off is given here.

Usually IC50 stands for the concentration that inhibits the measured activity by half.

DNA topoisomerase 2-alpha (Homo sapiens), sequence (P11388 whole entry): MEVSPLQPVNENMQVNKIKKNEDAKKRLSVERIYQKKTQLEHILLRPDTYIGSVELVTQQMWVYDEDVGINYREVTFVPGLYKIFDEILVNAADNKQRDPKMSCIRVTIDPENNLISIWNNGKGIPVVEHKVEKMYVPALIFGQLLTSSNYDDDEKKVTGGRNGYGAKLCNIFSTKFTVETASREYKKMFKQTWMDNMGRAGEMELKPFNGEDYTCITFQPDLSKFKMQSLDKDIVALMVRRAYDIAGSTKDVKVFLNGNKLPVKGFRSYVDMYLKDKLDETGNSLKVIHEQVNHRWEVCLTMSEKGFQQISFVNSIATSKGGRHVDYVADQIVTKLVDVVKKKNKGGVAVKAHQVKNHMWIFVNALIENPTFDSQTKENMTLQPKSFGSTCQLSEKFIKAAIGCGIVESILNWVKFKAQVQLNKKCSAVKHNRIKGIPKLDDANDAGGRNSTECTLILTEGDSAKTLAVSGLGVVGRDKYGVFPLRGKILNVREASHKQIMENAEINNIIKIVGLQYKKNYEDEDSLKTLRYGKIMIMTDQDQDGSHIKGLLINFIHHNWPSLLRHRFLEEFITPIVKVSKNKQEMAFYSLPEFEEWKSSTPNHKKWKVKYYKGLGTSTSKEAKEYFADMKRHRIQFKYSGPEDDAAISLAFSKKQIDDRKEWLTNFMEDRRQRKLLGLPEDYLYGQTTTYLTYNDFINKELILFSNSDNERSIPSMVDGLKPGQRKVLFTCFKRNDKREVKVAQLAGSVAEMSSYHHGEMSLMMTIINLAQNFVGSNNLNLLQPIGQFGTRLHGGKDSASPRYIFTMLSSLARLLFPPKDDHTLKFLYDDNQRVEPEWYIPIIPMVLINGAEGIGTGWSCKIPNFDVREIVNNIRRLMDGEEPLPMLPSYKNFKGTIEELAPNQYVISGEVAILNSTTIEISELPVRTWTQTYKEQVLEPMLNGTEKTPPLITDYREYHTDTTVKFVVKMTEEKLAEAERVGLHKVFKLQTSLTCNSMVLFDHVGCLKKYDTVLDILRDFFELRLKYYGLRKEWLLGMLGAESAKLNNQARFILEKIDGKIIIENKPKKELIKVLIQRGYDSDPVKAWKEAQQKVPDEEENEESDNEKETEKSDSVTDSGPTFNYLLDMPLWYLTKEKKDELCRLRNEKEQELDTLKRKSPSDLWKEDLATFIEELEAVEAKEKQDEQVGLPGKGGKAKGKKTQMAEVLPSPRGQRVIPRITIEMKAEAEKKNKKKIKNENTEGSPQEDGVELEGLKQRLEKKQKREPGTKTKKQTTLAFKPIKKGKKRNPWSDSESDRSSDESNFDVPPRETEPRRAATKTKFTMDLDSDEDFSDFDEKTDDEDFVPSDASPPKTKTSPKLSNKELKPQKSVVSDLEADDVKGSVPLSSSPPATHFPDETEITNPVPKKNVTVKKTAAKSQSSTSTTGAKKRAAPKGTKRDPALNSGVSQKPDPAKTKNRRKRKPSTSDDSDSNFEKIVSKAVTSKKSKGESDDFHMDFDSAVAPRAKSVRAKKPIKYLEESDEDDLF

For the compound `Oc1ccc2oc(-c3ccc4c(c3)OCO4)cc2c1`, the inhibition of growth at 10 µM is 11.2% with MDA-MB-435 [1] and 3.6% in the assay with MDA-MB-231 [2].
Take `CC[N+](C)(CC)CCC[n+]1c(-c2ccccc2)c2cc(N)ccc2c2ccc(N)cc21`: the outcome in the assay on Nucleic Acid [3] was Active.
Take `CC[C@@]1(O)C(=O)OCc2c1cc1n(c2=O)Cc2cc3cc(O)ccc3nc2-1`: the inhibition entry in the assay listed under Bos taurus is “Active”.
Take `O=[N+]([O-])c1cccc(-c2cc3cc([N+](=O)[O-])ccc3o2)c1`: the inhibition of growth at 10 µM stood at 4.3% with MDA-MB-435 [1] and 17.3% in the assay on MDA-MB-231 [2].
On to `Oc1ccc2cc(-c3ccc4c(c3)OCO4)ccc2c1`, for which the inhibition of growth at 10 µM was determined as 86.9% with MDA-MB-435 [1] and 66.3% in the assay with MDA-MB-231 [2]. In addition, the IC50 was 8.5 µM in the assay on MDA-MB-231 [4], 10.8 µM in the assay on PC-3, 3.9 µM in the assay with MDA-MB-435 [5] and 2.6 µM in the assay on HepG2.
In the case of `Oc1ccc(-c2cc3cc(O)ccc3o2)cc1`, the figures for the inhibition of growth at 10 µM with MDA-MB-435 [1] and in the assay on MDA-MB-231 [2] were 13.8% and 29.5%, respectively.
On the same counts, the results for `OCc1ccc(-c2cc3cc(O)ccc3o2)cc1` are 42.6% and 10.6%.
With `COc1cccc2c1C(=O)c1c(O)c3c(c(O)c1C2=O)C[C@@](O)(C(=O)CO)C[C@@H]3O[C@H]1C[C@H](N)[C@H](O)[C@H](C)O1`, the result in the assay with Nucleic Acid [6] was Active.
For `COc1cc([C@@H]2c3cc4c(cc3[C@@H](O[C@@H]3O[C@@H]5CO[C@@H](C)O[C@H]5[C@H](O)[C@H]3O)[C@H]3COC(=O)[C@H]23)OCO4)cc(OC)c1O` [ETOPOSIDE], the inhibition result (in [7]; in [8]; in the assay with MDA-MB-231 [9]) was “Active” throughout. The inhibition of growth at 10 µM amounted to 96.1% with MDA-MB-435 [1] and 71% in the assay with MDA-MB-231 [2]. The IC50 came out at 3.6 µM in the assay with MDA-MB-231 [4], 1 µM in the assay with PC-3, 1.7 µM in the assay with MDA-MB-435 [5] and 30 µM in the assay with HepG2.
